Source: US8541670B2, “Compositions and methods for inhibiting tumor cell growth” (priority 2007, dated 2013)
Where no end group is shown, it is not given here.

Tests used:
AKT [1] = experiment: AKT activity in cultured neurons treated with PKA inhibitor or activator; type: cell-based
Method: To evaluate the significance of the AKT-PKAc interaction, kinase inhibitors were employed. […] Thus, cultured neurons were treated with the selective PKA inhibitor, H-89, and the potent PKA activator, forskolin, and AKT activity was analyzed.

N2a cells [2] = experiment: Trypan blue staining, live and dead cell count; type: cell-based
Excerpt: Therefore, in addition to capturing live images, cells were stained with trypan blue at different time intervals following treatment with ZaTa and counted by a light microscope using a hemocytometer.

AKT [3] = molecular target: T1, AKT (Homo sapiens, UniProt P31749); experiment: Screen of PKAc peptide library for effect on catalytic activity of AKT; type: biochemical; conditions: single peptide
T1 construct: purchased Upstate Biotechnology
T1 sequence (P31749 whole entry): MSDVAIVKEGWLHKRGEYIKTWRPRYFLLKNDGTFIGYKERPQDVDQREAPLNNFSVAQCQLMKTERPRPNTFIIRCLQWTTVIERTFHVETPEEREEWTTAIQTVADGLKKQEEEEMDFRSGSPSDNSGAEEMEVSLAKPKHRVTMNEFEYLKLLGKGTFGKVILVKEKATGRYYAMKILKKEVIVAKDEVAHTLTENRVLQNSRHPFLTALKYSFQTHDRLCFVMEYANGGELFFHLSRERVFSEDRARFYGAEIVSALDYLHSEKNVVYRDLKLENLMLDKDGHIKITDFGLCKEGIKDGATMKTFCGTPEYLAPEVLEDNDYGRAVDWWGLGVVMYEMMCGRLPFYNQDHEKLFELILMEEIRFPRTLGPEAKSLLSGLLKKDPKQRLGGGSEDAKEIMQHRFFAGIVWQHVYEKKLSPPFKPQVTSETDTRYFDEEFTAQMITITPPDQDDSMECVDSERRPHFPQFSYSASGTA
Excerpt: Unlike PKAc and protein kinase C (PKC) for which potent inhibitor peptides are readily available and widely used, inhibitors of AKT are generally lacking (Brazil, et al. (2004) supra). […] Moreover, optimal substrate motifs for AKT have been modified to design AKT inhibitors (Obata, et al. (2000) J. Biol. Chem. 275:36108-36115). Because the full-length PKAc protein inhibited the catalytic activity of AKT, a peptide library based on the human (GENBANK Accession No. NP_002721; SEQ ID NO:1) and bovine (GENBANK Accession No. CAA47627; SEQ ID NO:2) PKAc protein sequences was designed and synthesized. This library contained 96 overlapping peptides (Table 1), covering the full-length protein sequence of human and bovine PKAc from the N- to C-terminus. The library was extensively screened to identify fragments of PKAc that mediated the inhibitory effect of PKAc toward AKT.
These peptides included peptide 49 (SEQ ID NO:56), 53 (SEQ ID NO:60), 62 (SEQ ID NO:69), 63 (SEQ ID NO:70) and 64 (SEQ ID NO:71). Combinations of consecutive overlapping peptide fragments were also assayed for an effect on the catalytic activity of AKT. A significant inhibitory effect was also observed when peptides 25 through 36 were combined (i.e., SEQ ID NOs:32-43), peptides 37 through 48 were combined (i.e., SEQ ID NOs:44-55), peptides 49 through 60 were combined (i.e., SEQ ID NOs:56-67), and peptides 61 through 72 were combined (i.e., SEQ ID NOs:68-79).

olfactory bulb cells = experiment: In vivo TUNEL in olfactory bulb after repeated intranasal delivery; parameters: species or system C57BL/6 mice; conditions: repeated intranasal treatment for three days
Excerpt: To confirm the apoptotic inducing effect of ZaTa in vivo, ZaTa was delivered to the mouse brain via the nasal cavity, a minimally invasive procedure compared to the stereotactic surgery. Intranasal delivery of compounds into the brain is an efficient and effective way for local delivery of compounds, without the need for passing the blood brain barriers, the major obstacle for studying the effect of different inhibitors/activators in CNS (Vyas, et al. (2005) Curr. Drug Deliv. 2:165-175; Hrafnkelsdottir, et al. (2005) Biol. Pharm. Bull. 28:1038-1042). […] This was visualized by double labeling of the brain sections with fluorescent TUNEL and a nuclear marker.
Depending on the intended use, a pharmaceutical composition of the invention can be administered by any suitable means, including parenteral injection (such as intraperitoneal, subcutaneous, intratumoral or intramuscular injection), orally or by topical application (e.g., transdermal or via a mucosal surface). By pharmaceutically acceptable formulation is meant, a composition or formulation that allows for the effective distribution of the nucleic acid molecules of the instant invention in the physical location most suitable for their desired activity. […]

AKT1 = molecular target: T2, AKT1 (Homo sapiens, UniProt P31749); experiment: AKT1 radioactive in vitro kinase assay (32P incorporation into Ser-21 GSK-3 substrate peptide); type: biochemical; conditions: compared with ZaTa
T2 construct: purchased Upstate Biotechnology
T2 sequence (P31749 whole entry): as above
Method: AKT1 catalytic activity was determined by measuring the incorporation of −^32P into Ser-21 glycogen synthase kinase 3[…] (GSK-3[…]) substrate peptide. Histogram bars represent the number of −^32P counts per minute (CPM). Reactions were carried out in the presence of different concentrations of the ZaTa peptide (SEQ ID NO:60), as well as a control peptide (SEQ ID NO:59) which shares 11 out of 17 amino acids in common with the N-terminus of the ZaTa peptide.
Of particular interest with regard to inhibitory activity toward AKT was peptide […](SEQ ID NO:60) which flanked the Thr-197 phosphorylation site of PKAc. […] Furthermore, the inhibitory effect of ZaTa peptide was compared with an adjacent peptide ([…] SEQ ID NO:59), a peptide that overlaps with the 11 N-terminal amino acid residues of the ZaTa peptide and carries the Thr-197 phosphorylation site. In this assay, the level of incorporation of −^32 P into Ser-21 GSK-3[…] substrate peptide was used as the measure of AKT1 in vitro catalytic activity.
For non-radioactive kinase assays, typically 25 ng of active AKT1 or PKAc (Upstate Biotechnology) was used in a kinase assay reaction buffer (20 mM MOPS, pH 7.2, 25 mM […]-glycerophosphate, 5 mM EGTA, 1 mM Na3VO4, 1 mM dithiothreitol, 75 mM MgCl2, and 0.5 mM ATP) in the presence of either 1 μL of Ser-9 GSK-3 GST fusion protein (Cell Signaling), or recombinant DARPP-32 (10 μg). For the radioactive kinase assays, typically 25 ng of kinase was added to the kinase assays reaction buffer (20 mM MOPS, pH 7.2, 25 mM […]-glycerophosphate, 5 mM EGTA, 1 mM Na3VO4, 1 mM dithiothreitol) containing 30 μM of dephosphorylated Ser-21 GSK-3 substrate peptide (Upstate Biotechnology) in the presence of different concentrations of inhibitor. Reactions were initiated by adding [−^32P] ATP (10 μCi/reaction) which was diluted in the reaction buffer, plus 500 μM cold ATP and 75 mM MgCl2. Kinase reactions were incubated 30° C. for 10-20 minutes. A 5 μL aliquot of the reaction was transferred to phosphocellulose paper, washed for 30 minutes with dH2O, and CPM of samples read in scintillation counter.

N2a cells [4] = experiment: MTT cell proliferation assay; type: cell-based; conditions: 10 μM, 48-hour treatment (FIG. 3, series 1)
Method: In histogram series 2, treatments were removed after 24 hours and cells were incubated for another 24 hours without treatment. […] Mitochondrial activity (reflecting cellular growth and viability) in the presence of ZaTa and ZaTa variants (ZaTa T10D, ZaTa T8D, ZaTa T14R, and ZaTa Y17T) was evaluated by measuring the optical density (“OD”) at 490 nm on a plate reader. ZaTa T10D refers to a ZaTa polypeptide variant in which the Threonine (T) at position 10 of SEQ ID NO: 60 is substituted by an Aspartic Acid (D). ZaTa T8D refers to a ZaTa polypeptide variant in which the Threonine (T) at position 8 of SEQ ID NO: 60 is substituted by an Aspartic Acid (D). ZaTa T14R refers to a ZaTa polypeptide variant in which the Threonine (T) at position 14 of SEQ ID NO: 60 is substituted by an Arginine (R). ZaTa Y17T refers to a ZaTa polypeptide variant in which the Tyrosine (Y) at position 17 of SEQ ID NO: 60 is substituted by an Threonine (T).
AKT affects a network that positively regulates G1/S cell cycle progression through several mechanisms that involve the expression and subcellular localization of the CDK inhibitor p27^Kip1 (Blain and Massague (2002) Nat. Med. 8:1076-1078; Liang, et al. (2002) supra; Shin, et al. (2002) supra; Viglietto, et al. (2002) supra). Based on these studies, the effect of ZaTa peptide on cell proliferation was assessed. […] Capturing live images of cultured N2a cells in the presence of different concentrations of the ZaTa peptide confirmed an obvious reduction in the number of dividing cells.
Based on the importance of the C-terminal arm of ZaTa for its inhibitory action on AKT, it was determined whether the free hydroxyl groups on residues Thr-8, Thr-10 (equivalent to Thr-197 in full-length PKAc), Thr-14 and Tyr-17 were important for the biological activity of this peptide. Mutants of ZaTa peptide were synthesized by replacing Thr-8 or Thr-10 residues with Asp (ZaTa^T8D and ZaTa^T10D, respectively) as an amino acid with a negatively charged side chain. Mutants of ZaTa with the hydrophilic positively charged amino acid Arg at either position Thr-14 or Tyr-17 (ZaTa^T14R and ZaTa^Y17R, respectively) were also synthesized. […] The inhibitory effect of ZaTa peptide on cell proliferation was reversible, to a large extent, after the removal of ZaTa treatment (FIG. 3, histogram series 2).
Cells (5×10^3) were incubated in 96-well plates in the presence of different concentrations of the ZaTa peptide, control peptide or DMSO as vehicle. Media was removed at different time intervals and replaced with media containing MTT (5 mg/mL), and incubated for one hour at 37° C. […] The activity of the mitochondria, reflecting cellular growth and viability, was evaluated by measuring the optical density at 490 nm on a plate reader.

[5] = counted at time points from 12 to 72 hours

## O=S(=O)(NCCNC/C=C/c1ccc(Br)cc1)c1cccc2cnccc12 [Peptide H-89]
AKT [1]
  activity of AKT, phosphorylation level at Thr-308 and Ser-473: dose-dependent increase

## AKRVKGRDWTLCGTPEY [ZaTa^T8D]
N2a cells [2]; [5]
  increase in the number of dead cells: not seen

## AKRVKGRTWDLCGTPEY [ZaTa^T10D]
N2a cells [2]; [5]
  increase in the number of dead cells: not seen

## AKRVKGRTWTLCGRPEY [ZaTa^T14R]
N2a cells [2]; only after 72 hours
  increase in the number of dead cells: significant increase in the number of dead cells

## D-Q-Q-G-Y-I-Q-V-T-D-F-G-F-A-K (DQQGYIQVTDFGFAK; Peptide_SEQ ID NO:56) [Peptide 49]
AKT [3]
  inhibitory effect toward AKT, individual library peptides: significant inhibitory effects

## G-V-L-I-Y-E-M-A-A-G-Y-P-P-F-F (GVLIYEMAAGYPPFF; Peptide_SEQ ID NO:70) [Peptide 63]
AKT [3]
  inhibitory effect toward AKT, individual library peptides: significant inhibitory effects

## GFAKRVKGRTWTL [control peptide, peptide overlapping the 11 N-terminal residues of ZaTa, reference compound]
Olfactory bulb cells
  number of apoptotic cells in olfactory bulb: no change in the number of apoptotic cells
AKT1
  inhibition of AKT1 catalytic activity: not able to inhibit AKT1

## W-A-L-G-V-L-I-Y-E-M-A-A-G-Y (WALGVLIYEMAAGY; Peptide_SEQ ID NO:69) [Peptide 62]
AKT [3]
  inhibitory effect toward AKT, individual library peptides: significant inhibitory effects

## Y-E-M-A-A-G-Y-P-P-F-F-A (YEMAAGYPPFFA; Peptide_SEQ ID NO:71) [Peptide 64]
AKT [3]
  inhibitory effect toward AKT, individual library peptides: significant inhibitory effects

## ZaTa^Y17R: ZaTa mutant with Arg at position Tyr-17 (AKRVKGRTWTLCGTPER; Peptide_SEQ ID NO:60)
N2a cells [2]; only after 72 hours
  increase in the number of dead cells: significant increase in the number of dead cells
N2a cells [4]
  effect of mutation on inhibition of cell proliferation relative to ZaTa: considerably augmented ZaTa activity
